Measurements reported in US20180230166A1 (Merck Sharp & Dohme Corp., priority 2015, published 2018).

Molecular target: T1, endogenous CETP from serum (Homo sapiens, UniProt P11597)
T1 construct: yielding a concentration of approximately 15 nM endogenous CETP in the assay; from tissue; host or cells: human serum (95% of the assay volume)
T1 sequence (P11597 18-493): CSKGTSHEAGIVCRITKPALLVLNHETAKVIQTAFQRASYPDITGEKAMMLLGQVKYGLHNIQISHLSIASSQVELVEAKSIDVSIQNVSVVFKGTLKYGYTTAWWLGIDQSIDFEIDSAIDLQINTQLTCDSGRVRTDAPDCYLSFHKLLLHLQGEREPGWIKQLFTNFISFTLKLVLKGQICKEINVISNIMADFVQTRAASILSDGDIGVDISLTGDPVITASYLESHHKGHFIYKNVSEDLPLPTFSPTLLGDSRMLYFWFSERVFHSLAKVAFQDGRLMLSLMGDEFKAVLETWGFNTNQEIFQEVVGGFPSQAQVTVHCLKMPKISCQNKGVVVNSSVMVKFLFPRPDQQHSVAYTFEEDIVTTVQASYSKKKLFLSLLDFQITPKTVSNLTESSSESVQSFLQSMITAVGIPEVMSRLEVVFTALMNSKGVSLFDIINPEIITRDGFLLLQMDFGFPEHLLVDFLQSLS
Assay: RTA assay in 95% human serum (95% RTA), CETP-catalyzed CE and TG transfer
Type: biochemical
Settings: 95% human serum, endogenous CETP; read-out: RTA (95% HS)
Method: Reagents and sources are: [3H] cholesteryl oleate (GE #TRK.886), [3H] Triolein (Perkin-Elmer NET-431), Butylated hydroxyl toluene (Aldrich, #D4740-4), DOPC (Sigma, #P6354), Sodium Bromide (Fisher scientific #S255-500), PEG 8000 (Fisher, #BP233-1), and human HDL (Intracel Corp #RP-036).
Both assays measure the transfer of [3H] cholesteryl oleate or [3H] triolein from exogenous LDL to HDL.
Radiolabeled donor particles are generated by first combining 100 μl of 200 μM butylated hydroxyl toluene in CHCl3, 216 μL of 21.57 mM DOPC in EtOH, and either 500 μCi [3H]-triolein (Perkin Elmer #NET-431) or 500 μCi [3H]-cholesteryl oleate (GE #TRK886) in a glass tube. Reagents are mixed, dried under nitrogen, and then resuspended in 2 mL of 50 mM Tris, 27 μM EDTA at pH 7.4. After a brief vortex, the solution is sonicated until clear and mixed with 20 mL of fresh human serum. The mixture is incubated overnight at 37° C. The [3H] labeled LDL substrate is separated at 1.063 g/ml density by sequential ultracentrifugal flotation in NaBr according to the method of Havel, Eder, et al., 1955, and Chapman, Goldstein, et al., 1981. Once isolated the particles are dialyzed 3× in CETP buffer (50 mM Tris, pH 7.4, 100 mM NaCl, 1 mM EDTA). Human HDL is purchased from Intracel and used as the acceptor particles.
Transfer assays are performed in a 96-well v-bottom polypropylene plate. […] 1 μL of each test compound diluted in DMSO is added to 47 μL of assay cocktail per well and incubated at 37° C. for 1 hour. To initiate the transfer reaction, 2 μL radiolabeled LDL is added. After an additional 60 min of incubation at 37° C., the transfer action is terminated by precipitation of LDL with an equal volume of 20% W/V PEG 8000. The plates are centrifuged at 2000 rpm for 30 minutes at 4° C. A 40 μL aliquot of the HDL-containing supernatant is transferred to a Packard Optiplate™ with 200 μL of MicroScint™ 20. After mixing, plates are counted by liquid scintillation. Counts present in the supernatant for blanks (wells containing only HDL acceptor, CETP buffer and DMSO) are subtracted from those containing test compounds and used to correct for non-specific transfer.
For the transfer assay using endogenous CETP from serum (95% RTA), the same procedure is used except that human serum is added such that a final concentration of serum of 95% of the total assay volume is achieved, yielding a concentration of approximately 15 nM endogenous CETP in the assay. This is then combined with HDL and CETP buffer and the reaction proceeds as above and is terminated as described.
Comparison of the counts of samples with inhibitors to an uninhibited (DMSO only) positive control yield a percent inhibition. A plot of percent inhibition vs. log of inhibitor concentration, fit to a Sigmoidal 4 parameter equation is used to calculate IC50.
Starting materials are commercially available or are made using known procedures or as shown below. The examples may be synthesized using the general schemes provided below. The data reported for the examples below were obtained using the RTA assay in 95% human serum. […] When compounds of Formula I are mentioned herein, such compounds include compounds defined generically by Formula I and also the specific examples disclosed herein.

For `COc1ccc(-c2ccc(C(=O)O)cc2C)cc1-c1ccc(C(F)(F)F)cc1[C@@H]1CC[C@H]2[C@@H](c3cc(C(F)(F)F)cc(C(F)(F)F)c3)CC(=O)N12` [Example 2, 2″-((3S,7R,7aS)-7-(3,5-bis(trifluoromethyl)phenyl)-5-oxohexahydro-1H-pyrrolizin-3-yl)-4′-methoxy-2-methyl-4″-(trifluoromethyl)-[1,1′:3′,1″-terphenyl]-4-carboxylic acid], the IC50 was 1830 nM.

Same assay, conditions: RTA assay in 95% human serum; read-out: IC50

Compared with `COc1ncc(-c2c(C)cc(C(=O)O)cc2C)cc1-c1ccc(C(F)(F)F)cc1[C@@H]1CC[C@H]2[C@@H](c3cc(C(F)(F)F)cc(C(F)(F)F)c3)SC(=O)N12` [Example 3, 4-{5-[2-{(1R,5S,7aS)-1-[3,5-bis(trifluoromethyl)phenyl]-3-oxotetrahydro-1H-pyrrolo[1,2-c][1,3]thiazol-5-yl}-4-(trifluoromethyl)phenyl]-6-methoxypyridin-3-yl}-3,5-dimethylbenzoic acid], `COc1ncc(-c2c(C)cc(C(=O)O)cc2C)cc1-c1ccc(C(F)(F)F)cc1[C@@H]1CC[C@H]2[C@@H](c3cc(C(F)(F)F)cc(C(F)(F)F)c3)CC(=O)N12` [Example 14, 4-{5-[2-{(3S,7R,7aS)-7-[3,5-bis(trifluoromethyl)phenyl]-5-oxohexahydro-1H-pyrrolizin-3-yl}-4-(trifluoromethyl)phenyl]-6-methoxypyridin-3-yl}-3,5-dimethylbenzoic acid] is 2-fold higher in IC50: 164 nM for the first, 321 nM for the second. The first is the more potent here.

Compared with `COc1ncc(-c2ccc(C(=O)O)cc2C)cc1-c1ccc(C(F)(F)F)cc1[C@@H]1CC[C@H]2[C@@H](c3cc(C(F)(F)F)cc(C(F)(F)F)c3)SC(=O)N12` [Example 4, 4-{5-[2-{(1R,5S,7aS)-1-[3,5-bis(trifluoromethyl)phenyl]-3-oxotetrahydro-1H-pyrrolo[1,2-c][1,3]thiazol-5-yl}-4-(trifluoromethyl)phenyl]-6-methoxypyridin-3-yl}-3-methylbenzoic acid], `COc1ncc(-c2ccc(C(=O)O)cc2C)cc1-c1ccc(C(F)(F)F)cc1[C@@H]1CC[C@H]2[C@@H](c3cc(F)cc(C(F)(F)F)c3)SC(=O)N12` [Example 5, 4-{5-[2-{(1R,5S,7aS)-1-[3-fluoro-5-(trifluoromethyl)phenyl]-3-oxotetrahydro-1H-pyrrolo[1,2-c][1,3]thiazol-5-yl}-4-(trifluoromethyl)phenyl]-6-methoxypyridin-3-yl}-3-methylbenzoic acid] is 2-fold lower in IC50: 559 nM for the first, 285 nM for the second. The second is the more potent here.

Going from `COc1ccc(-c2ccc(C(=O)O)cc2C)cc1-c1ccc(C(F)(F)F)cc1[C@@H]1CC[C@H]2[C@@H](c3cc(F)cc(C(F)(F)F)c3)SC(=O)N12` [Example 6, 2″-{(1R,5S,7aS)-1-[3-flluoro-5-(trifluoromethyl)phenyl]-3-oxotetrahydro-1H-pyrrolo[1,2-c][1,3]thiazol-5-yl}-4′-methoxy-2-methyl-4″-(trifluoromethyl)-1,1′:3′,1″-terphenyl-4-carboxylic acid] to `COc1ccc(-c2ccc(C(=O)O)cc2C)cc1-c1ccc(C(F)(F)F)cc1[C@@H]1CC[C@H]2[C@@H](c3ccnc(C(F)(F)F)c3)SC(=O)N12` [Example 9, 4′-methoxy-2-methyl-2″-{(1R,5S,7aS)-3-oxo-1-[2-(trifluoromethyl)pyridin-4-yl]tetrahydro-1H-pyrrolo[1,2-c][1,3]thiazol-5-yl}-4″-(trifluoromethyl)-1,1′:3′,1″-terphenyl-4-carboxylic acid], the IC50 rises from 926 nM to 1990 nM (2.1-fold). The first is the more potent here.

`COc1cc(F)c(C(C)C)cc1-c1ccc(C(F)(F)F)cc1[C@@H]1CC[C@H]2[C@@H](c3cc(F)cc(C(F)(F)F)c3)SC(=O)N12` [Example 7, (1R,5S,7aS)-5-[4′-fluoro-2′-methoxy-5′-(1-methylethyl)-4-(trifluoromethyl)biphenyl-2-yl]-1-[3-fluoro-5-(trifluoromethyl)phenyl]tetrahydro-1H-pyrrolo[1,2-c][1,3]thiazol-3-one] and `COc1cc(F)c(C(C)C)cc1-c1ccc(C(F)(F)F)cc1[C@@H]1CC[C@H]2[C@@H](c3cc(F)cc(C(F)(F)F)c3)CC(=O)N12` [Example 18, (1R,5S,7aS)-5-[4′-fluoro-2′-methoxy-5′-(1-methylethyl)-4-(trifluoromethyl)biphenyl-2-yl]-1-[3-fluoro-5-(trifluoromethyl)phenyl]hexahydro-3H-pyrrolizin-3-one] are within 1.5-fold of each other in IC50: 2000 nM for the first, 2690 nM for the second.

Compared with `COc1ncc(-c2c(C)cc(C(=O)O)cc2C)cc1-c1ccc(C(F)(F)F)cc1[C@@H]1CC[C@H]2[C@@H](c3ccnc(C(F)(F)F)c3)SC(=O)N12` [Example 8, 4-{6-methoxy-5-[2-{(1R,5S,7aS)-3-oxo-1-[2-(trifluoromethyl)pyridin-4-yl]tetrahydro-1H-pyrrolo[1,2-c][1,3]thiazol-5-yl}-4-(trifluoromethyl)phenyl]pyridin-3-yl}-3,5-dimethylbenzoic acid], `COc1ncc(-c2ccc(C(=O)O)cc2C)cc1-c1ccc(C(F)(F)F)cc1[C@@H]1CC[C@H]2[C@@H](c3ccnc(C(F)(F)F)c3)SC(=O)N12` [Example 10, 4-{6-methoxy-5-[2-{(1R,5S,7aS)-3-oxo-1-[2-(trifluoromethyl)pyridin-4-yl]tetrahydro-1H-pyrrolo[1,2-c][1,3]thiazol-5-yl}-4-(trifluoromethyl)phenyl]pyridin-3-yl}-3-methylbenzoic acid] is 28-fold higher in IC50: 143 nM for the first, 3940 nM for the second.

Going from `COc1cc(F)c(C(C)C)cc1-c1ccc(C(F)(F)F)cc1[C@@H]1CC[C@H]2[C@@H](c3ccnc(C(F)(F)F)c3)SC(=O)N12` [Example 11, (1R,5S,7aS)-5-[4′-fluoro-2′-methoxy-5′-(1-methylethyl)-4-(trifluoromethyl)biphenyl-2-yl]-1-[2-(trifluoromethyl)pyridin-4-yl]tetrahydro-1H-pyrrolo[1,2-c][1,3]thiazol-3-one] to `COc1ccc([C@H]2CC[C@H](C(=O)O)CC2)cc1-c1ccc(C(F)(F)F)cc1[C@@H]1CC[C@H]2[C@@H](c3cc(F)cc(C(F)(F)F)c3)SC(=O)N12` [Example 12, trans-4-[2′-{(1R,5S,7aS)-1-[3-fluoro-5-(trifluoromethyl)phenyl]-3-oxotetrahydro-1H-pyrrolo[1,2-c][1,3]thiazol-5-yl}-6-methoxy-4′-(trifluoromethyl)biphenyl-3-yl]cyclohexanecarboxylic acid], the IC50 falls from 2520 nM to 1500 nM (1.7-fold).

Going from `COc1ncc(-c2ccc(C(=O)O)cc2C)cc1-c1ccc(C(F)(F)F)cc1[C@@H]1CC[C@H]2[C@@H](c3cc(C(F)(F)F)cc(C(F)(F)F)c3)CC(=O)N12` [Example 16, 4-{5-[2-{(3S,7R,7aS)-7-[3,5-bis(trifluoromethyl)phenyl]-5-oxohexahydro-1H-pyrrolizin-3-yl}-4-(trifluoromethyl)phenyl]-6-methoxypyridin-3-yl}-3-methylbenzoic acid] to `COc1ncc(-c2c(C)cc(C(=O)O)cc2C)cc1-c1ccc(C(F)(F)F)cc1[C@@H]1CC[C@H]2[C@@H](c3cc(F)cc(C(F)(F)F)c3)CC(=O)N12` [Example 17, 4-{5-[2-{(3S,7R,7aS)-7-[3-fluoro-5-(trifluoromethyl)phenyl]-5-oxohexahydro-1H-pyrrolizin-3-yl}-4-(trifluoromethyl)phenyl]-6-methoxypyridin-3-yl}-3,5-dimethylbenzoic acid], the IC50 falls from 2940 nM to 328 nM (9-fold).
